Data published in patent US10945971B2, “Sphingosine kinase type 1 inhibitors and uses thereof” (Enzo Therapeutics, Inc., priority 2008, dated 2021).

Legend:
U118 cells = experiment: Proliferation of U118 glioblastoma cells; type: cell-based, human
Description: Cells were plated at 10,000 cells/well in 48-well plates and allowed to attach for 24 h. Cell proliferation was measured at the indicated times with WST-1 and absorbance was measured in a plate reader at 450 nm with background subtraction at 630 nm. Cell death was detected by trypan blue exclusion assays in which the percent of blue dye incorporating cells were determined using a light microscope and a hemacytometer as described (Yacoub et al. Mol Cancer Ther 7:314-329, 2008). Apoptotic cell death was measured by staining cell nuclei with the Hoechst dye bisbenzimide and apoptotic cells were identified by condensed, fragmented nuclear regions as described previously (Sankala et al. Cancer Res 67:10466-10474, 2007). A minimum of 300 cells was scored.

U373 cells = experiment: PMA-stimulated F-actin reorganization and lamellipodia formation (phalloidin staining, confocal); type: cell-based, human
Description: Cells were grown on 3-aminopropyl-triethoxysilane-treated 15 mm glass cover slips in 24 well plates. Following treatments, cells were washed with PBS, fixed with 3% paraformaldehyde for 10 min at room temperature, and blocked in TBST buffer containing 1% BSA. After washing, cells were incubated in the same buffer containing Alexa-conjugated phalloidin for 30 min, followed by 15 min incubation in 10 μg/ml of Hoechst 33342. For TUNEL assays, fixed cells were permeabilized with 0.5% TX-100 for 30 min, washed and incubated in TdT buffer supplemented with 250 μM CoCl2, 20 units TdT (NEB, Ipswich, Mass.) and 1 nM fluorescein-12-dUTP (Roche) for 1 h at 37° C. Coverslips were washed with TBST, rinsed in water, air dried and mounted on glass slides with Cytoseal 60 polymer (Richard-Allan Scientific, Kalamazoo, Mich.). Images were collected on an LSM 510 laser confocal microscope (Zeiss, Thornwood, N.Y.) with a 100× oil immersion objective.

LN229 cells [1] = experiment: In vitro invasion into Matrigel, LN229 cells; type: cell-based, human
Description: Boyden chamber invasion assays were carried out essentially as described (Shida et al. Cancer Res 68:6569-6577, 2008).

ERK1/2 [2] = experiment: Western blotting of ERK1/2 phosphorylation, LN229 cells; type: cell-based, human; settings: LN229, serum, LPA, EGF, short-term
Description: (§1) Cells were scraped in buffer containing 20 mM Tris-HCl, pH 7.5, 50 mM NaCl, 50 mM NaF, 30 mM Na4P2O7, 20 mM 2-glycerophosphate, 1 mM Na3VO4, 5 mM EDTA, 2 mM EGTA, 0.5% SDS and protease inhibitor cocktail (1:200 dilution) and probe-sonicated. Equal amounts of protein determined with bicinchoninic acid (Pierce, Rockford, Ill.), were resolved by SDS-PAGE and transferred to nitrocellulose membranes. Blots were blocked with 5% non-fat dry milk in Tris-buffered saline containing 0.1% […] (TBST) for 1 h at room temperature, and then incubated with primary antibodies (1:3,000 in 1% BSA) overnight, followed by the appropriate HRP-conjugated secondary antibodies (1:40,000 in 1% BSA). Immunocomplexes were visualized by enhanced chemiluminescence (Pierce).

Akt [3] = experiment: Western blotting of Akt phosphorylation, U373 cells; type: cell-based, human
Description: as §1

Akt [4] = experiment: Western blotting of Akt phosphorylation, GBM6 cells; type: cell-based, human; settings: GBM6, shortly following treatment
Description: as §1

ERK1/2 [5] = experiment: Western blotting of pERK1/2, GBM6 cells; type: cell-based, human
Description: as §1

[6] = test system: S1P, sphingosine and ceramide levels; experiment: Sphingolipid metabolite levels by LC-ESI-MS/MS after SK1-I; type: cell-based
Excerpt: (§2) Lipids were extracted and phosphorylated and unphosphorylated sphingoid bases, individual ceramide acyl chain species, as well as SK1-I and its metabolites were quantified by liquid chromatography, electrospray ionization-tandem mass spectrometry (LC-ESI-MS/MS) as described previously (Merrill et al. Methods 36:207-224, 2005).

[7] = Metabolism of SK1-I in cells by LC-ESI-MS/MS; type: in vitro ADME
Excerpt: as §2

LN229 cells [8] = experiment: Colony formation (clonogenic) assay, LN229 cells; type: cell-based, human
Description: Cells were plated at a density of 1000 cells/well in a 12-well plate in DMEM containing 5% serum. After 8 h, SK1-I was added and 2 h later, the media was changed. After 10 days, cells were fixed in 4% paraformaldehyde and stained with crystal violet (0.05%). Colonies larger then 0.5 mm in diameter were counted.

JNK = JNK pathway and p38 MAPK activation, LN229 cells; type: cell-based, human
Description: as §1

[9] = test system: intracranial LN229-H2B-EGFP tumors; experiment: Intracranial LN229 xenograft tumors in nu/nu mice; type: in vivo
Description: Adult female NCI nu/nu mice were anesthetized and LN229-H2B-EGFP cells (2.5×10^4 in 1 μl PBS) were stereotactically implanted in the putamen region (1 mm anterior and 2.5 mm lateral to the Bregma at the depth of 3.5 mm at a rate of 0.1 μl/min). Mice were monitored for recovery until complete wakening. 20 days after implantation, mice were injected i.p. with SK1-I (20 mg/kg in PBS) every other day. Mice were observed daily following tumor implantation and were euthanized on reaching a moribund state.
Experiments were repeated at least three times with consistent results. For each experiment, data from triplicate samples were expressed as means±S.D. Statistics were performed by single factor ANOVA, and p<0.05 was considered significant. The Kaplan-Meier estimator was used to generate the survival curves and to estimate the median survival values. Differences between survival curves were compared using a log-rank test.

[10] = test system: human leukemic cell lines; settings: U.S. Ser. No. 12/387,228; cited from earlier work
AML xenograft tumors = settings: U.S. Ser. No. 12/387,228; cited from earlier work

CCCCCc1ccc(/C=C/[C@H](O)[C@@H](CO)NC)cc1 [SK1-I, (2R,3S,4E)-N-methyl-5-(4′-pentylphenyl)-2-aminopent-4-ene-1,3-diol]
proliferation (U118 cells): suppress proliferation
PMA-stimulated F-actin reorganization at the leading edge and formation of lamellipodia (U373 cells): dramatically reduced
LPA-, serum- and EGF-stimulated in vitro invasion of Matrigel (LN229 cells [1]): greatly attenuated
stimulated ERK1/2 phosphorylation at Thr202/Tyr204 (ERK1/2 [2]): did not significantly affect
basal Akt phosphorylation at Thr308 and Ser473 (Akt [3]; U373): reduced
time to significant inhibitory effect on Akt phosphorylation (Akt [3]; U373): ≤ 20 min
duration of inhibitory effect on Akt phosphorylation (Akt [3]; U373, data not shown): at least 24 hours
total Akt levels (Akt [3]; after treatment with SK1-I): no significant reductions
basal and serum- and EGF-stimulated phosphorylation of Akt (Akt [4]): reduced
pERK1/2 levels (ERK1/2 [5]): without affecting
ceramide levels, particularly C16-ceramide ([6]; after 24 h of treatment): increased markedly
S1P levels ([6]; within 20 min after addition): significant reduction
ceramide levels ([6]; within 1 h after addition): without major changes
decrease in S1P levels ([6]; within 1 h after addition): 70%
sphingosine levels ([6]; within 1 h after addition): increase
other metabolites ([7]; after 24 h): no other metabolites were detected
phosphorylation of the compound ([7]; in contrast to FTY720): not readily phosphorylated
long-term survival in clonogenic assays (LN229 cells [8]): markedly suppressed
activation of JNK (JNK; LN229): delayed activation of JNK
phosphorylation of c-Jun (Ser63/73) and ATF-2 (Thr71) (JNK; LN229, after addition of SK1-I): enhanced phosphorylation
p38 MAPK (JNK; LN229, data not shown): without affecting
symptoms of tumor burden ([9]; 20 mg/kg i.p. every other day from day 20, when vehicle mice were moribund (day 43-49)): None of the SK1-I treated mice showed any symptoms
tumors on T2W MRI ([9]; day 48): no tumors were evident
tumor on gadolinium enhanced MRI ([9]; day 48, site of injection): small tumor
Kaplan-Meier survival ([9]; i.p. administration, vs vehicle control): significant survival benefit
invading GFP-labeled LN229 cells in intracranial tumor sections ([9]; vs vehicle treated animals): significantly fewer invading cells
apoptosis [10]: markedly induced apoptosis
tumor growth (AML xenograft tumors): inhibited growth
